How the values were obtained:
Details in all cases: incubation time: 72 h
MDA-MB-436 [1] = experiment: normalised response (% of control), CellTiter-Glo; higher = more viable cells (100 = DMSO, 0 = benzethonium chloride kill control)
Protocol: (§1)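 DSRT, 72 h incubation, CellTox Green / CellTiter-Glo readout. Signal is normalised to DMSO and benzethonium chloride controls. Value is the normalised response at the highest dose.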

CAL-51 [2] = experiment: as above
Protocol: as §1

CAL-120 [3] = experiment: as above
Protocol: as §1

Hs578T [4] = experiment: as above
Protocol: as §1

HCC1143 [5] = experiment: as above
Protocol: as §1

MCF-10A [6] = experiment: as above
Protocol: as §1

BT-474 [7] = experiment: as above
Protocol: as §1

MFM-223 [8] = experiment: as above
Protocol: as §1

BT-549 [9] = experiment: as above
Protocol: as §1

CAL-85-1 [10] = experiment: as above
Protocol: as §1

MDA-MB-453 [11] = experiment: as above
Protocol: as §1

HCC1937 [12] = experiment: as above
Protocol: as §1

HDQ-P1 [13] = experiment: as above
Protocol: as §1

MDA-MB-231 [14] = experiment: as above
Protocol: as §1

HCC1599 [15] = experiment: as above
Protocol: as §1

DU-4475 [16] = experiment: as above
Protocol: as §1

MDA-MB-468 [17] = experiment: as above
Protocol: as §1

CAL-148 [18] = experiment: as above
Protocol: as §1

SK-BR-3 = experiment: as above
Protocol: as §1

MDA-MB-436 [19] = experiment: normalised response (% of control), CellTox Green; higher = less cell death (100 = DMSO, 0 = benzethonium chloride kill control)
Method in brief: (§2)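 Breast cancer cell lines were exposed for 72 h in 384-well plates to compound at 5 concentrations, 10-fold apart, covering a 10,000-fold range fixed for each compound. Plates were read for CellTox Green fluorescence and CellTiter-Glo luminescence and normalised to 0.1 % DMSO (100) and a positive kill control (0). Each value is the normalised signal at one concentration of the series.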

CAL-51 [20] = experiment: as above
Method in brief: as §2

CAL-120 [21] = experiment: as above
Method in brief: as §2

Hs578T [22] = experiment: as above
Method in brief: as §2

HCC1143 [23] = experiment: as above
Method in brief: as §2

MCF-10A [24] = experiment: as above
Method in brief: as §2

BT-474 [25] = experiment: as above
Method in brief: as §2

MFM-223 [26] = experiment: as above
Method in brief: as §2

BT-549 [27] = experiment: as above
Method in brief: as §2

CAL-85-1 [28] = experiment: as above
Method in brief: as §2

MDA-MB-453 [29] = experiment: as above
Method in brief: as §2

HCC1937 [30] = experiment: as above
Method in brief: as §2

HDQ-P1 [31] = experiment: as above
Method in brief: as §2

MDA-MB-231 [32] = experiment: as above
Method in brief: as §2

HCC1599 [33] = experiment: as above
Method in brief: as §2

DU-4475 [34] = experiment: as above
Method in brief: as §2

MDA-MB-468 [35] = experiment: as above
Method in brief: as §2

CAL-148 [36] = experiment: as above
Method in brief: as §2

| SMILES | normalised response (MDA-MB-436 [1]) | normalised response (CAL-51 [2]) | normalised response (CAL-120 [3]) | normalised response (Hs578T [4]) | normalised response (HCC1143 [5]) | normalised response (MCF-10A [6]) | normalised response (BT-474 [7]) | normalised response (MFM-223 [8]) | normalised response (BT-549 [9]) | normalised response (CAL-85-1 [10]) | normalised response (MDA-MB-453 [11]) | normalised response (HCC1937 [12]) | normalised response (HDQ-P1 [13]) | normalised response (MDA-MB-231 [14]) | normalised response (HCC1599 [15]) | normalised response (DU-4475 [16]) | normalised response (MDA-MB-468 [17]) | normalised response (CAL-148 [18]) | normalised response (SK-BR-3) | normalised response (MDA-MB-436 [19]) | normalised response (CAL-51 [20]) | normalised response (CAL-120 [21]) | normalised response (Hs578T [22]) | normalised response (HCC1143 [23]) | normalised response (MCF-10A [24]) | normalised response (BT-474 [25]) | normalised response (MFM-223 [26]) | normalised response (BT-549 [27]) | normalised response (CAL-85-1 [28]) | normalised response (MDA-MB-453 [29]) | normalised response (HCC1937 [30]) | normalised response (HDQ-P1 [31]) | normalised response (MDA-MB-231 [32]) | normalised response (HCC1599 [33]) | normalised response (DU-4475 [34]) | normalised response (MDA-MB-468 [35]) | normalised response (CAL-148 [36]) |
| --- | --- | --- | --- | --- | --- | --- | --- | --- | --- | --- | --- | --- | --- | --- | --- | --- | --- | --- | --- | --- | --- | --- | --- | --- | --- | --- | --- | --- | --- | --- | --- | --- | --- | --- | --- | --- | --- |
| CN(c1ccccc1CNc1nc(Nc2ccc3c(c2)CC(=O)N3)ncc1C(F)(F)F)S(C)(=O)=O (10000 nM) | 18.9% | 5.46% | 45.7% | 23.9% | 17.8% | 9.01% | 18.1% | 48.2% | 6.21% | 4.6% | 56.4% | 34.6% | 16.5% | 4.8% | 8.88% | 2.4% | 7.14% | 73% | 21.6% | 92.8% | 16.1% | 89.1% | -25.4% | 70.8% | 7.39% | 84.8% | 92.2% | 52.9% | 11.5% | 105% | 51.5% | 68.7% | -15.1% | 60.9% | 64.2% | 110% | 58.1% |
| Nc1nccc(-c2c(-c3ccc(F)cc3)ncn2C2CCCCC2)n1 (10000 nM) | 96% | 89.2% | 107% | 99.9% | 99.7% | 48.5% | 83.6% | 88% | 92.2% | 75.7% | 84.9% | 80.2% | 70.5% | 84.4% | 101% | 91.7% | 70.2% | 110% | 71.8% | 92.7% | 105% | 105% | 135% | 110% | 11.8% | 103% | 96% | 100% | 71.6% | 104% | 69.8% | 95.7% | 109% | 98.1% | 98.6% | 114% | 99.9% |
| COC(=O)C[C@](O)(CCCC(C)(C)O)C(=O)O[C@@H]1C(OC)=C[C@]23CCCN2CCc2cc4c(cc2[C@H]13)OCO4 [Omacetaxine] (10000 nM) | 17.4% | 6.4% | 21.7% | 1.02% | 10.8% | 1.54% | 5.49% | 3.94% | 2.75% | 1.11% | 24.6% | 17.7% | 21.1% | 2.58% | 6.51% | 10.2% | 4.57% | 26.6% | 1.19% | 32.1% | 94.3% | 80.1% | 33.9% | 74.8% | -13.6% | 75.2% | 30.1% | 77% | -46.3% | 98.8% | 107% | 64.9% | 48.4% | 88.5% | 98.5% | 84.9% | 1.18% |
| Cc1cc(C(C)Nc2ccccc2)c2nc(N3CCOCC3)cc(=O)n2c1 (centres undefined) [TGX-221] (10000 nM) | 70.9% | 67.6% | 88.5% | 79% | 86.8% | 82.5% | 70.9% | 88.7% | 78.7% | 98.2% | 76.1% | 78.6% | 88.6% | 72.5% | 99.2% | 95.6% | 58.1% | 105% | 78% | 78.3% | 93.5% | 96.3% | -33.5% | 76.9% |  | 92.8% | 94.5% | 84.2% | 106% | 90.7% | 79.8% |  | 69% | 91% | 94.7% | 152% | 97.4% |
| COc1cc(Nc2ncc(F)c(Nc3ccc4c(n3)NC(=O)C(C)(C)O4)n2)cc(OC)c1OC [Tamatinib] (10000 nM) | 95.7% | 74.1% | 94.9% | 102% | 101% | 107% | 95.6% | 110% | 67.4% | 97.5% | 112% | 97.5% | 100% | 103% | 91.6% | 107% | 71.2% | 109% | 109% | 94.9% | 83.7% | 100% | 104% | 115% | 103% | 103% | 94.1% | 95% | 64.4% | 103% | 97% | 111% | 108% | 106% | 99% | -90.8% | 65.1% |
| C[C@@H]1CCN(C(=O)CC#N)C[C@@H]1N(C)c1ncnc2[nH]ccc12 [Tofacitinib] (5000 nM) | 110% | 76.6% | 99.8% | 101% | 102% | 97.2% | 98.2% | 104% | 105% | 109% | 105% | 100% | 102% | 114% | 106% | 99.4% | 105% | 109% | 106% | 113% | 89.2% | 103% | 126% | 117% | 105% | 102% | 103% | 120% | 63.8% | 110% | 111% | 113% | 124% | 114% | 108% | 142% | 101% |
| CCCC(CCC)C(=O)O [Valproic acid] (1000000 nM) | 100% | 87.6% | 103% | 99% | 106% | 94.6% | 100% | 96.3% | 106% | 96.7% | 81.2% | 100% | 103% | 98.6% | 98.2% | 89.9% | 97.8% | 88.4% | 99.1% | 106% | 98.4% | 111% | 129% | 111% | 119% | 105% | 99.5% | 111% | 97.4% | 102% | 88.4% | 107% | 98.7% | 93.9% | 97% | 126% | 95.9% |
| FC(F)c1nc2ccccc2n1-c1nc(N2CCOCC2)nc(N2CCOCC2)n1 [ZSTK474] (10000 nM) | 40.6% | 16.4% | 34.6% | 25.9% | 37.9% | 26.2% | 44.8% | 29.5% | 21.2% | 20.2% | 15.9% | 39.1% | 33% | 43.8% | 71.7% | 67.5% | 36.6% | 38.7% | 22.4% | 84.2% | 70.5% | 98.6% | 101% | 90.3% | 106% | 86.6% | 84.7% | 73.5% | 82.4% | 99.1% | 86.7% | 99.7% | 97.6% | 88.4% | 96.3% | 157% | 68.1% |
